Drawing on PubChem BioAssay (NCI), this text covers TGI for 8 molecules.

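48-hour exposure; five concentrations; linearly interpolated endpoints. TGI is the concentration that stops growth completely.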

Test systems include 786-0 renal; A549 NSCLC; ACHN renal; BT-549 breast; EKVX NSCLC; HCC-2998 colon; HCT-116 colon; HCT-15 colon; KM12 colon; MDA-N; NCI-H23 lung; OVCAR-4 ovarian; OVCAR-5 ovarian; SF-295 CNS; SN12C renal; SNB-19 CNS; U251 CNS.
Holding throughout (test): NCI tumour cell line growth inhibition, 48 h

`NCCCN(CCCCN(CCCN)Cc1ccccc1)Cc1ccccc1`: the TGI is 77.5 µM in the experiment with 786-0 renal; greater than 100 µM with A549 NSCLC; greater than 100 µM with ACHN renal; greater than 100 µM in the experiment on BT-549 breast; 96.5 µM with EKVX NSCLC; 22.7 µM in the experiment with HCC-2998 colon. Besides, the TGI in the experiment on HCT-116 colon is greater than 100 µM; in the experiment with HCT-15 colon it was greater than 100 µM; in the experiment on KM12 colon it was greater than 100 µM; in the experiment on MDA-N it was 33.1 µM; in the experiment on NCI-H23 lung, greater than 100 µM; with OVCAR-4 ovarian it was greater than 100 µM. For the same molecule, the TGI with OVCAR-5 ovarian is 37.8 µM; in the experiment on SF-295 CNS, greater than 100 µM; in the experiment on SN12C renal, 42.5 µM; in the experiment with SNB-19 CNS, 22.5 µM; with U251 CNS it was greater than 100 µM.
With `COC(=O)C1(Cc2ccccc2)Cc2ccccc2C1O` (centres undefined), the TGI in the experiment on 786-0 renal, in the experiment with A549 NSCLC, in the experiment on ACHN renal, with BT-549 breast, in the experiment on EKVX NSCLC and in the experiment on HCC-2998 colon was greater than 100 µM throughout. Also, the TGI with HCT-116 colon, in the experiment on HCT-15 colon, in the experiment with KM12 colon, in the experiment with MDA-N, in the experiment on NCI-H23 lung and with OVCAR-4 ovarian was greater than 100 µM each time. In addition, the TGI in the experiment on OVCAR-5 ovarian, in the experiment with SF-295 CNS, with SN12C renal and in the experiment on U251 CNS was greater than 100 µM throughout.
`CCS1=C2C(=O)CC(C)(C)CC2=Nc2ccccc21` (centres undefined): the TGI in the experiment with 786-0 renal, in the experiment with A549 NSCLC, in the experiment on ACHN renal, with BT-549 breast, in the experiment with EKVX NSCLC and in the experiment with HCC-2998 colon was greater than 100 µM in each case. For the same molecule, the TGI in the experiment with HCT-116 colon, in the experiment on HCT-15 colon, in the experiment on KM12 colon, in the experiment on MDA-N, in the experiment on NCI-H23 lung and in the experiment on OVCAR-4 ovarian was greater than 100 µM each time. For the same molecule, the TGI in the experiment on OVCAR-5 ovarian, with SF-295 CNS, in the experiment with SN12C renal, in the experiment with SNB-19 CNS and in the experiment on U251 CNS was greater than 100 µM each time.
With `CCCCCCCCCCC/C=C(/C(=O)CCCO[Si](C)(C)C(C)(C)C)C(=O)OC`, the TGI in the experiment on 786-0 renal, in the experiment on ACHN renal, in the experiment on BT-549 breast, in the experiment on EKVX NSCLC, with HCC-2998 colon and with HCT-116 colon was greater than 100 µM throughout. The TGI in the experiment on HCT-15 colon, in the experiment with KM12 colon, in the experiment with MDA-N, in the experiment with NCI-H23 lung, in the experiment on OVCAR-4 ovarian and in the experiment on OVCAR-5 ovarian was greater than 100 µM in each case. The TGI with SF-295 CNS, in the experiment on SN12C renal, in the experiment on SNB-19 CNS and in the experiment on U251 CNS was greater than 100 µM throughout.
On to `Cc1cccc2c(N)c3cccc(C(=O)NCC[N+](C)(C)Cc4ccccc4[N+](=O)[O-])c3nc12`, for which the TGI in the experiment with 786-0 renal was 12.7 µM; in the experiment on A549 NSCLC, greater than 54.5 µM; in the experiment with ACHN renal, 13.9 µM; in the experiment on BT-549 breast, greater than 39 µM; with EKVX NSCLC, greater than 100 µM; in the experiment on HCC-2998 colon it was greater than 25.9 µM. For the same molecule, the TGI is greater than 100 µM in the experiment with HCT-116 colon; greater than 100 µM in the experiment with HCT-15 colon; greater than 100 µM in the experiment on KM12 colon; greater than 41.4 µM with MDA-N; 14.1 µM in the experiment with NCI-H23 lung; greater than 34.5 µM with OVCAR-4 ovarian. The TGI in the experiment with OVCAR-5 ovarian is 60.2 µM; in the experiment with SF-295 CNS, greater than 50.1 µM; in the experiment on SN12C renal it was greater than 39.9 µM; in the experiment on SNB-19 CNS, greater than 100 µM; with U251 CNS, greater than 27.6 µM.
As to `O=C(N/C(=C\c1ccccc1)c1nc2ccccc2c(=O)o1)c1ccccc1`, the TGI in the experiment with 786-0 renal was greater than 100 µM; in the experiment on A549 NSCLC it was greater than 100 µM; in the experiment with ACHN renal it was greater than 100 µM; in the experiment with BT-549 breast, 66.8 µM; in the experiment with EKVX NSCLC, greater than 100 µM; with HCC-2998 colon, greater than 100 µM. Moreover, the TGI in the experiment with HCT-116 colon, in the experiment on HCT-15 colon, in the experiment with KM12 colon, with MDA-N, in the experiment on NCI-H23 lung and with OVCAR-4 ovarian was greater than 100 µM each time. In addition, the TGI in the experiment on OVCAR-5 ovarian is greater than 100 µM; in the experiment with SF-295 CNS, greater than 100 µM; with SN12C renal, greater than 100 µM; in the experiment on SNB-19 CNS, greater than 67.1 µM; in the experiment with U251 CNS, greater than 83.3 µM.
As for `Cc1c(-c2ccccc2)c(C#N)c2nnn(-c3ccc(Cl)cc3)c(=O)n12`, the TGI in the experiment with 786-0 renal is 47.7 µM; with A549 NSCLC, greater than 100 µM; in the experiment on ACHN renal, greater than 100 µM; with BT-549 breast, greater than 100 µM; with EKVX NSCLC, greater than 100 µM; in the experiment with HCC-2998 colon, greater than 100 µM. Also, the TGI with HCT-116 colon, in the experiment on HCT-15 colon, with KM12 colon, with MDA-N, in the experiment on NCI-H23 lung and with OVCAR-4 ovarian was greater than 100 µM each time. In addition, the TGI is greater than 100 µM with OVCAR-5 ovarian; greater than 100 µM in the experiment with SF-295 CNS; greater than 100 µM in the experiment on SN12C renal; greater than 100 µM in the experiment on SNB-19 CNS; 27.3 µM with U251 CNS.
For the molecule `S=C(NCCc1ccccn1)N/N=C(\c1ccccc1)c1ccccn1`, the TGI is greater than 56.8 µM in the experiment with 786-0 renal; greater than 100 µM in the experiment with A549 NSCLC; 17.9 µM with ACHN renal; 39.3 µM in the experiment on BT-549 breast; greater than 71.6 µM in the experiment with EKVX NSCLC; greater than 63 µM with HCC-2998 colon. Also, the TGI in the experiment with HCT-116 colon is greater than 100 µM; in the experiment on HCT-15 colon, greater than 86.5 µM; with KM12 colon, greater than 91.5 µM; with MDA-N it was greater than 100 µM; in the experiment with NCI-H23 lung it was greater than 27.3 µM; in the experiment with OVCAR-4 ovarian, 54.7 µM. The TGI in the experiment with OVCAR-5 ovarian is greater than 100 µM; with SF-295 CNS, greater than 55.7 µM; with SN12C renal, greater than 67.3 µM; in the experiment on SNB-19 CNS, greater than 100 µM; with U251 CNS it was greater than 100 µM.
